Seven compounds from patent US20250230193A1, “CYCLIC COMPOUND HAVING SELECTIVE KRAS INHIBITORY EFFECT ON HRAS AND NRAS” (CHUGAI SEIYAKU KABUSHIKI KAISHA, priority 2022, published 2025) can be followed below.

Assay [1] deals with GDP-bound NRAS wild-type protein (Homo sapiens, UniProt P01111). The assay is described as follows: Binding to NRAS by surface plasmon resonance (SPR), Single Cycle Kinetics. In general terms: SPR reads the build-up and loss of mass on a sensor chip optically.
In assay [2] the target is GDP-bound HRAS wild-type protein (Homo sapiens, UniProt P01112). Kind of assay: Binding to HRAS by surface plasmon resonance (SPR), Single Cycle Kinetics.
Chain of GDP-bound HRAS wild-type protein (P01112 whole entry): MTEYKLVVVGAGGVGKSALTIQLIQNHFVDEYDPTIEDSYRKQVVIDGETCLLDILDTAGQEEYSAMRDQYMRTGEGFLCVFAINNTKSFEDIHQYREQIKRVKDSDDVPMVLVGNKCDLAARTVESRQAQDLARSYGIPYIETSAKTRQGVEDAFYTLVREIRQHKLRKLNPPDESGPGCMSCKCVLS
Setting [3] is: KD ratio, GDP-bound NRAS wild-type vs GDP-bound KRAS wild-type, SPR.
Setting [4] is: KD ratio, GDP-bound HRAS wild-type vs GDP-bound KRAS wild-type, SPR.
Setting [5] is: SPR, GDP-bound NRAS wild-type vs GDP-bound KRAS wild-type.
Where [6] appears, read: SPR, GDP-bound HRAS wild-type vs GDP-bound KRAS wild-type.

Chain of GDP-bound NRAS wild-type protein (P01111 whole entry): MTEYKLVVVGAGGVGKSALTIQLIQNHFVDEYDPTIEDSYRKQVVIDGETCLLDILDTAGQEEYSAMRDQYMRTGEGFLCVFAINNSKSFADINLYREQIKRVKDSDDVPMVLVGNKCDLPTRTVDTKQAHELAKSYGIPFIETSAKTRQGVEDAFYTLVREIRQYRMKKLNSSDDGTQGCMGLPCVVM

As to `CC[C@H](C)[C@@H]1NC(=O)[C@H](CC(C)C)N(C)C(=O)C[C@@H](C(=O)N2CCOCC2)N(C)C(=O)[C@H](C2CCCC2)N(C)C(=O)C2(CC2)NC(=O)[C@@H]2CCCN2C(=O)[C@H](CCc2cc(F)c(C(F)(F)F)c(F)c2)NC(=O)CN(C)C(=O)[C@H](Cc2ccc(C(F)(F)F)cc2)N2CCCC[C@@H](C2=O)N(C)C(=O)CN(C)C1=O` [PP0559], in assay [1] (SPR), the “NRAS/KRAS (ratio of KD value with respect to GDP-bound NRAS wild-type protein to KD value with respect to KRAS)” value is “B (a compound having 3 or more and less than 10 is denoted as B)”. In addition, the “HRAS/KRAS (ratio of KD value with respect to GDP-bound HRAS wild-type protein to KD value with respect to KRAS)” value in assay [2] (SPR) is “B (a compound having 3 or more and less than 10 is denoted as B)”.
On to `CCO[C@@H]1C[C@H]2C(=O)NC3(CCC3)C(=O)N(C)[C@@H](C3CCCC3)C(=O)N(C)[C@H](C(=O)N3CCOCC3)CC(=O)N(C)[C@@H](CC(C)C)C(=O)N[C@@H]([C@@H](C)CC)C(=O)N(C)CC(=O)N(C)[C@H]3CCCCCN(C3=O)[C@@H](Cc3ccc4sccc4c3)C(=O)N(C)CC(=O)N[C@@H](CCc3cc(F)c(C(F)(F)F)c(F)c3)C(=O)N2C1` [PP0920], for which the “NRAS/KRAS (ratio of KD value with respect to NRAS to KD value with respect to KRAS)” value in assay [1] (setting [3]) was “B (a compound having 3 or more and less than 10 is denoted as B)”. Besides, the “HRAS/KRAS (ratio of KD value with respect to HRAS to KD value with respect to KRAS)” value in assay [2] (setting [4]) was “B (a compound having 3 or more and less than 10 is denoted as B)”.
Take `CC[C@H](C)[C@@H]1NC(=O)[C@H](CCOC)N(C)C(=O)C[C@@H](C(=O)N(C)CC)N(C)C(=O)[C@H](C2CCCC2)N(C)C(=O)C2(CC(C)(C)C2)NC(=O)[C@@H]2C[C@H](C)CN2C(=O)[C@H](CCc2cc(F)c(C(F)(F)F)c(F)c2)NC(=O)CN(C)C(=O)[C@H](Cc2ccc(C(F)(F)F)cc2)N2CC/C=C\C[C@@H](C2=O)N(C)C(=O)CN(C)C1=O` [PP1972]: the “NRAS/KRAS (ratio of KD value for NRAS to KD value for KRAS)” value in assay [1] (setting [3]) is “A (a compound having 10 or more and less than 20 is denoted as A)”. The “HRAS/KRAS (ratio of KD value for HRAS to KD value for KRAS)” value in assay [2] (setting [4]) is “A (a compound having 10 or more and less than 20 is denoted as A)”.
For the compound `CCC(CC)[C@H]1C(=O)N(C)[C@H](C(=O)N(C)C)CC(=O)N(C)[C@@H](C(C)C)C(=O)N[C@@H]([C@@H](C)CC)C(=O)N(C)CC(=O)N(C)[C@H]2C/C=C\CCN(C2=O)[C@@H](CC2CCC(F)(F)CC2)C(=O)N(C)CC(=O)N[C@@H](CCc2cc(F)c(C(F)(F)F)c(F)c2)C(=O)N2C[C@@H](C)C[C@H]2C(=O)NC2(CC(C)(C)C2)C(=O)N1C` [PP2496], the “NRAS/KRAS (ratio of KD value with respect to NRAS to KD value with respect to KRAS)” value in assay [1] (setting [5]) was “A (a compound having 10 or more and less than 20 is denoted as A)”. In addition, in assay [2] (setting [6]), the “HRAS/KRAS (ratio of KD value with respect to HRAS to KD value with respect to KRAS)” value was “A (a compound having 10 or more and less than 20 is denoted as A)”.
As to `CCO[C@@H]1C[C@H]2C(=O)NC3(CC(C)(C)C3)C(=O)N(C)[C@@H](C(CC)CC)C(=O)N(C)[C@H](C(=O)N(C)C)CC(=O)N(C)[C@@H](CC3CC3)C(=O)N[C@@H]([C@@H](C)CC)C(=O)N(C)CC(=O)N(C)[C@H]3C/C=C\CCN(C3=O)[C@@H](Cc3ccc(C)cc3)C(=O)N(C)CC(=O)N[C@@H](CCc3cc(F)c(C(F)(F)F)c(F)c3)C(=O)N2C1` [PP2137], the “NRAS/KRAS (ratio of KD value with respect to NRAS to KD value with respect to KRAS)” value in assay [1] (setting [5]) is “A (a compound having 10 or more and less than 20 is denoted as A)”. In addition, the “HRAS/KRAS (ratio of KD value with respect to HRAS to KD value with respect to KRAS)” value in assay [2] (setting [6]) is “A (a compound having 10 or more and less than 20 is denoted as A)”.
Turning to `CC[C@H](C)[C@@H]1NC(=O)[C@H](CC(C)C)N(C)C(=O)C[C@@H](C(=O)N2CCOCC2)N(C)C(=O)[C@H](C2CCCC2)N(C)C(=O)C2(CCCC2)NC(=O)[C@@H]2CCCN2C(=O)[C@H](CCc2cc(F)c(C(F)(F)F)c(F)c2)NC(=O)CN(C)C(=O)[C@H](Cc2ccc(C(F)(F)F)cc2)N2CCCC[C@@H](C2=O)N(C)C(=O)CNC1=O` [PP0542], the “NRAS/KRAS (ratio of KD value with respect to GDP-bound NRAS wild-type protein to KD value with respect to KRAS)” value in assay [1] (SPR) is “B (a compound having 3 or more and less than 10 is denoted as B)”. Besides, the “HRAS/KRAS (ratio of KD value with respect to GDP-bound HRAS wild-type protein to KD value with respect to KRAS)” value in assay [2] (SPR) is “B (a compound having 3 or more and less than 10 is denoted as B)”.
Turning to `CCC[C@H]1C(=O)N[C@@H]([C@@H](C)CC)C(=O)N(C)CC(=O)N(C)[C@H]2C/C=C\CCN(C2=O)[C@@H](Cc2ccc(C(F)(F)F)cc2)C(=O)N(C)CC(=O)N[C@@H](CCc2ccc(C(F)(F)F)c(Cl)c2)C(=O)N2CCCCC[C@H]2C(=O)NC2(CC(C)(C)C2)C(=O)N(C)[C@@H](C(CC)CC)C(=O)N(C)[C@H](C(=O)N(C)C)CC(=O)N1C` [PP2964], the “NRAS/KRAS (ratio of KD value with respect to GDP-bound NRAS wild-type protein to KD value with respect to KRAS)” value in assay [1] (class symbols) was “AA (a compound having 20 or more is denoted as AA)”. Further, in assay [2] (class symbols), the “HRAS/KRAS (ratio of KD value with respect to GDP-bound HRAS wild-type protein to KD value with respect to KRAS)” value was “A (a compound having 10 or more and less than 20 is denoted as A)”.
